Assay results as given in US20100129856A1, “Methods and Devices for Cell Signaling Under Pulse Stimulation” (priority 2008, published 2010).
No end group written: not given here.

What was measured:
PAR1 receptor = target: T1, PAR1 receptor (Homo sapiens, UniProt P25116); assay: Microfluidics-RWG biosensor DMR assay of A549 cells with PAR1 agonists; format: cell-based; conditions: for EC100: DMR; for Reversibility of the triggered cellular response: agonist removed after 30 min; for Response of pre-treated cells to second stimulation with 10 unit/ml thrombin: first exposure 30 min (SFLLR-amide 10 μM or thrombin 5 unit/ml), HBSS ~2 hours, then thrombin, FIG. 10; for P-DMR signal maximal amplitude (shift in resonant wavelength): thrombin 5 unit/ml, SFLLR-amide 10 μM, constant flow 1 microliter per min, FIG. 9
T1 construct: triggered an almost indistinguishable DMR signal in A549 cells; host or cells: A549 (human lung carcinoma), not starved
T1 sequence (P25116 22-425): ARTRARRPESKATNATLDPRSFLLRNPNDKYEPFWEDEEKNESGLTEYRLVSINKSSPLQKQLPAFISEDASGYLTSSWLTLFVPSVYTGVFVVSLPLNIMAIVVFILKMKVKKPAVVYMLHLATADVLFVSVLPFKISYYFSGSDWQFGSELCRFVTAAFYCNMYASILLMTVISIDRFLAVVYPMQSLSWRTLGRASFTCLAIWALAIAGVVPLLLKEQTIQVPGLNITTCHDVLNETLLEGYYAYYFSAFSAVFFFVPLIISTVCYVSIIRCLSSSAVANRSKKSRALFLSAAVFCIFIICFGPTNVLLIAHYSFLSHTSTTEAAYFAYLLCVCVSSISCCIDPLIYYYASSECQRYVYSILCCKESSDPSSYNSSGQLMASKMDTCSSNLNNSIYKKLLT
Protocol: (§1) Cells were typically grown using ˜1 to 2×10^4 cells per well at passage 3 to 15 suspended in 50 μl of the corresponding culture medium in the biosensor microplate, and were cultured at 37° C. under air/5% CO2 for ˜1 day. Except for A431 which was subject to ˜20 hr starvation through continuously culture in the serum-free DMEM, the A459 cells were directly assayed without starvation. The confluency for all cells at the time of assays was ˜95% to 100%. For cell culture in the microfluidics-biosensor chamber systems, ˜4×10^4 cells suspended in 10 μl the medium containing 10% FBS were injected into the chamber, and were cultured at 37° C. under air/5% CO2 until ˜95% confluency was reached (˜1 day). To prevent drying during the culture, the biosensor device was maintained within a petri dish with a cover, and extra cell medium within the dish.
(§2) Label-free biosensor cell assays: Corning RWG (resonant waveguide grating) imaging system was used for label-free biosensor cell assays. The imaging system, based on swept wavelength interrogation, is capable of high resolution imaging, with a spatial resolution of 6 micron in the direction perpendicular to the propagation path of the coupled light, a resolution of about 150 or about 6 microns in the direction parallel to the propagation path of the coupled light. The cellular responses across the whole sensor were recorded in real time at each pixel (6 microns×6 microns). The cellular responses at defined locations or areas of the biosensor surface were averaged to generate responses of a population of cells within the detection area(s).
The A431 cells reached high confluency before assays, and were subject to starvation for overnight with serum free medium. For A549 cells, cells were grown to high confluency and used for assays without starvation. Before assays, the cell medium was replaced with 1× Hanks' balanced salt solution (HBSS) having 20 mM Hepes buffer, and incubated within the imaging system for about 1 hour. The chamber was filled with 6.6 micro-liters buffered solution. The HBSS buffer solution was initially introduced into the chamber from the inlet and flowed through the biosensor with a low flow rate (typically 1 μl/min or 1 microliter/min) using a controlled pump until a steady baseline was reached. Then, a first solution, typically a solution containing a receptor agonist or a compound dissolved in the HBSS buffer, was introduced by switching the valve, and flowed through the biosensor for a period of time (e.g., 1 min, or 5 min, or 30 min). Subsequently, the HBSS buffer solution was reintroduced and flowed through the biosensor to replace the first solution. After certain time period, a second solution, typically a solution containing a receptor agonist or a compound, either different or the same as the first solution, was introduced and flowed through the biosensor continuously to trigger a cellular response. The flow rate was typically relatively low (˜0.5 μ/min to 5 μl/min), such that no mechanical sensitive cellular responses were triggered, and the cellular responses observed were largely due to the chemical(s) in the solution. Different combinations of these steps can be applied, depending on the purpose of the assays. The cellular responses throughout the assays were recorded using the high resolution imaging system. Depending on the biosensor insert used, the biosensor has a dimension of 3 mm×3 mm or 2 mm×2 mm. The chamber dimension is a length of about 9 mm from the inlet to the outlet, a width of 5 mm, and a height of 100 microns from the sensor surface to the bottom surface of the chamber. The total volume of solution required to fill the chamber is about 6 micro-liters.
For biosensor cellular assays, a baseline was established first. All studies were carried out at controlled temperature (22° C.) and with three replicates for each measurement, unless specifically mentioned. […]

[1] = target: T2, β2-adrenergic receptor (β2AR) (Homo sapiens, UniProt P07550); assay: Buffer swapping RWG biosensor DMR assay (microplate) for long-acting agonism; format: cell-based
T2 construct: 2 nM epinephrine-induced DMR signal of quiescent A431 cells; host or cells: A431 (human epidermoid carcinoma), serum-starved (quiescent)
Protocol: Cells were typically grown using ˜1 to 2×10^4 cells per well at passage 3 to 15 suspended in 50 μl of the corresponding culture medium in the biosensor microplate, and were cultured at 37° C. under air/5% CO2 for ˜1 day. […] The confluency for all cells at the time of assays was ˜95% to 100%.

quiescent A431 cells = assay: Microfluidics-RWG biosensor DMR assay under pulse or sustained stimulation; format: cell-based, human; conditions: FIG. 8; for DMR signal under pulse stimulation compared with sustained epinephrine response: 2 min pulse, 2 nM epinephrine, 100 nM salbutamol, flow 1 microliter/min
Protocol: as §1, §2
The A431 cells reached high confluency before assays, and were subject to starvation for overnight with serum free medium. For A549 cells, cells were grown to high confluency and used for assays without starvation. Before assays, the cell medium was replaced with 1× Hanks' balanced salt solution (HBSS) having 20 mM Hepes buffer, and incubated within the imaging system for about 1 hour. […] The cellular responses throughout the assays were recorded using the high resolution imaging system. […]

[2] = quiescent A431 cells, pulse about 60 sec, 100 nM norepinephrine, 100 nM salbutamol, 100 nM salmeterol, FIG. 7b

T2 sequence (P07550 whole entry): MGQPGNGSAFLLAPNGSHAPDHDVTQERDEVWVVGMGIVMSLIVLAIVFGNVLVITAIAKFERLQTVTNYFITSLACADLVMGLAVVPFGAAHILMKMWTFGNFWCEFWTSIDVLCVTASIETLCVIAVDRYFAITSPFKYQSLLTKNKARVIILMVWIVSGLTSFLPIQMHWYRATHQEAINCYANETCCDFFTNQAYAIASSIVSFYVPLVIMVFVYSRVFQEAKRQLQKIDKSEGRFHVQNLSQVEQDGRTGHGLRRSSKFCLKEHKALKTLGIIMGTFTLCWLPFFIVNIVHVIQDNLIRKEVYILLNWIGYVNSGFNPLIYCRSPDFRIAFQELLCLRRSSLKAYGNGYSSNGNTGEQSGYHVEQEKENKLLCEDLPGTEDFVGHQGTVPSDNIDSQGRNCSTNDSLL

| Compound | EC100 (PAR1 receptor; A549 cells) | Reversibility of the triggered cellular response (PAR1 receptor; A549 cells) | P-DMR signal maximal amplitude (shift in resonant wavelength) (PAR1 receptor; A549 cells) | Effect of pulse pre-treatment on the 2 nM epinephrine-induced DMR signal [1, 2] | DMR signal under pulse stimulation compared with sustained epinephrine response (quiescent A431 cells) | Response of pre-treated cells to second stimulation with 10 unit/ml thrombin (PAR1 receptor; A549 cells) | further results |
| --- | --- | --- | --- | --- | --- | --- | --- |
| C[C@@H]1C[C@@H]([C@H](O)CC2CC(=O)NC(=O)C2)C(=O)[C@@H](C)C1 [cycloheximide] | – | – | – | – | – | – | Effect on the second thrombin response of thrombin-treated A549 cells (PAR1 receptor; 10 μM cycloheximide in every solution, data not shown): largely eliminated |
| CNC[C@H](O)c1ccc(O)c(O)c1 [epinephrine] | – | – | – | little impact | much smaller response | – | Response to second stimulation with 2 nM epinephrine after sustained pre-treatment ([1]; A431 cells pre-treated with 2 nM epinephrine under sustained stimulation, data not shown): completely desensitized; Long-acting or short-acting agonism at the β2AR ([1]; concluded from pulse stimulation through buffer swapping, quiescent A431 cells): short-acting agonist; Effect of pulse pre-treatment on the 2 nM epinephrine-induced DMR signal ([1]; quiescent A431 cells, pulse about 150 sec, 0.5 nM salmeterol, 1 nM CGP12177, 0.1 nM formeterol, FIG. 7a): did not cause the de-sensitization; DMR signal under sustained stimulation at slow flow rate (quiescent A431 cells; 2 nM epinephrine flowed throughout the assay, 1 microliter/min): comparable to that obtained using microplate-based sustained response |
| NC[C@H](O)c1ccc(O)c(O)c1 [norepinephrine] | – | – | – | little impact | – | – | – |
| CC(C)(C)NCC(O)c1ccc(O)c(CO)c1 (stereo not shown) [salbutamol] | – | – | – | – | much smaller response | – | – |

Continued, in another order:

| EC100 (PAR1 receptor; A549 cells) | Reversibility of the triggered cellular response (PAR1 receptor; A549 cells) | P-DMR signal maximal amplitude (shift in resonant wavelength) (PAR1 receptor; A549 cells) | Compound | Effect of pulse pre-treatment on the 2 nM epinephrine-induced DMR signal [1, 2] | DMR signal under pulse stimulation compared with sustained epinephrine response (quiescent A431 cells) | Response of pre-treated cells to second stimulation with 10 unit/ml thrombin (PAR1 receptor; A549 cells) | further results |
| --- | --- | --- | --- | --- | --- | --- | --- |
| 10 µM | largely reversible | ~400 picometers | SFLLR-amide (SFLLR-NH2; UniProt P25116 42-46, looked up, fragment) | – | – | still able to respond to the second stimulation with thrombin with slightly smaller amplitude | Plateau level of DMR signal above the baseline after switching back to HBSS (PAR1 receptor; A549 cells, 10 μM agonist replaced with HBSS 30 min after stimulation, FIG. 9a): about 120 picometers |
| 5 unit/ml | largely irreversible | ~400 picometers | thrombin | – | – | only gave rise to a little response | DMR signal after switching back to HBSS (PAR1 receptor; A549 cells, 5 unit/ml agonist replaced with HBSS 30 min after stimulation, FIG. 9b): still maintained elevated signal |
